Experimental data from ChEMBL document CHEMBL5316350, “Novel Pyrido[2',1':2,3]imidazo[4,5-c]quinoline Derivative Selectively Poisons Leishmania donovani Bisubunit Topoisomerase 1 to Inhibit the Antimony-Resistant Leishmania Infection in Vivo” (J Med Chem, 2023).
Calls of active or inactive are those of the source. No cut-off for these calls is given here.

Legend:
Leishmania donovani [1] = assay: Induction of cell cycle arrest in Leishmania donovani Ag83 promastigotes assessed as decrease in accumulation of cells in G2/M phase at 5 uM measured after 6 hrs by PI staining based flow cytometry (reference value: 15.1 %); assay type: functional; parameters: scale not given: the % may be the effect or the level left
[2] = biological target: T1, DNA topoisomerase I (Leishmania donovani (strain BPK282A1)) (UniProt E9BRC0); assay: Binding affinity to Leishmania donovani topoisomerase I assessed as DNA intercalation by measuring dislodging of bound fluorophore at 200 uM by EtBr displacement assay
T1 sequence (whole entry): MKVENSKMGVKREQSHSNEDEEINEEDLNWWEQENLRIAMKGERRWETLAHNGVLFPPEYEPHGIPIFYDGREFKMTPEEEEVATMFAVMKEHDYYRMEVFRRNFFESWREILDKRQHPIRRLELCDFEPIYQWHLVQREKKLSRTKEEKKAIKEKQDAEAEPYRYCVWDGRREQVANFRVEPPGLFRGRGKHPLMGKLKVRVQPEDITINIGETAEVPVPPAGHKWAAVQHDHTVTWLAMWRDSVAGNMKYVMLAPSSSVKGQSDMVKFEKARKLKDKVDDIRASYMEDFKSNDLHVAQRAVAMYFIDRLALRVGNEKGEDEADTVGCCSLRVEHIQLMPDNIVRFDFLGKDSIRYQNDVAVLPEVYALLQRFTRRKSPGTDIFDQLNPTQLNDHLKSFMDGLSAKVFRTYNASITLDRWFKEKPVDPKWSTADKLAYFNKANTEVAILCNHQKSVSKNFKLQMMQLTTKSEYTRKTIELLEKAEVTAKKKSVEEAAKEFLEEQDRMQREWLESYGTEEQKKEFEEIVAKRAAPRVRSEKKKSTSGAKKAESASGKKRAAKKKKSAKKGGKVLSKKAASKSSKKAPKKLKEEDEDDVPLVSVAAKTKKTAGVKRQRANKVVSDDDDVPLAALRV

Leishmania donovani [3] = assay: Induction of cell cycle arrest in Leishmania donovani Ag83 promastigotes assessed as decrease in accumulation of cells in G0/G1 phase at 5 uM measured after 6 hrs by PI staining based flow cytometry (reference value: 65.1%); assay type: functional; parameters: scale not given: the % may be the effect or the level left
MCF7 [4] = assay: Induction of cell cycle arrest in human MCF7 cells measured at 5 uM upto 24 hrs by PI staining based flow cytometry; assay type: functional
Leishmania donovani [5] = assay: Induction of apoptosis in Leishmania donovani Ag83 promastigotes assessed as early apoptotic cells measured at 5 uM after 6 hrs by Annexin V-FITC/PI staining based flow cytometric analysis (reference value: 0.00%); assay type: functional
Leishmania donovani [6] = assay: Induction of apoptosis in Leishmania donovani Ag83 promastigotes assessed as viable cells measured at 5 uM after 12 hrs by Annexin V-FITC/PI staining based flow cytometric analysis (reference value: 99.4%); assay type: functional
Leishmania donovani [7] = assay: Induction of apoptosis in Leishmania donovani Ag83 promastigotes assessed as early apoptotic cells measured at 5 uM after 24 hrs by Annexin V-FITC/PI staining based flow cytometric analysis (reference value: 0.00%); assay type: functional
Leishmania donovani [8] = assay: Induction of apoptosis in Leishmania donovani Ag83 promastigotes assessed as increase in apoptotic genomic DNA fragmentation measured at 5 uM after 6 hrs by Annexin V-FITC/PI staining based flow cytometric analysis; assay type: functional, organism-based
MCF7 [9] = assay: Induction of apoptosis in human MCF7 cells measured at 5 uM upto 24 hrs by Annexin V-FITC/PI staining based flow cytometric analysis; assay type: functional, cell-based
MCF7 [10] = assay: Potency index ratio of test compound IC50 to camptothecin IC50 for cytotoxicity against human MCF7 cells; assay type: functional
Leishmania donovani [11] = assay: Antileishmanial activity in Leishmania donovani Ag83 promastigotes assessed as Top1cc-induced DNA breakdown by measuring TUNEL positive cells by confocal microscopic analysis; assay type: functional, organism-based; details: time 6-12 hrs, TDE = time-dependent effect
Leishmania donovani [12] = assay: Antileishmanial activity in Leishmania donovani Ag83 promastigotes assessed as persistent Top1cc-induced DNA breakdown by measuring TUNEL positive cells treated for 6 to 12 hrs followed by compound removal measured after 6 to 12 hrs by confocal microscopic analysis relative to camptothecin; assay type: functional, organism-based; details: time 6-12 hrs
[13] = biological target: T1, DNA topoisomerase I (Leishmania donovani (strain BPK282A1)); assay: (§1) Inhibition of recombinant Top1 in Antimony resistant Leishmania donovani BHU575 whole cell extract assessed as relaxation of supercoiled pBluescript SK(+) DNA measured by agarose gel electrophoresis analysis; details: dose 5-50 µM
DNA topoisomerase I = biological target: T2, DNA topoisomerase I (Leishmania donovani (strain BPK282A1), UniProt E9BRC0); assay: as §1
T2 sequence (E9BRC0 whole entry): T1 sequence (whole entry)

[14] = biological target: T1, DNA topoisomerase I (Leishmania donovani (strain BPK282A1)); assay: Binding affinity to antimony resistant Leishmania donovani BHU575 promastigotes recombinant topoisomerase I assessed as fold change in stabilization of cleavage complex at 5 to 50 uM measured after 30 mins relative to camptothecin; details: dose 5-50 µM
Leishmania donovani [15] = assay: Induction of apoptosis in Leishmania donovani BHU575 assessed as DNA break accumulation measured at 5 uM after 6 to 24 hrs by TUNEL staining based assay; assay type: functional, organism-based; details: time 6-24 hrs
Leishmania donovani [16] = assay: Antileishmanial activity in Leishmania donovani BHU575 promastigotes assessed as TUNEL positive cells at 5 uM measured after 24 hrs by confocal microscopic analysis relative to control; assay type: functional
Leishmania donovani [17] = assay: Induction of cell cycle arrest in antimony resistant Leishmania donovani BHU575 promastigotes assessed as decrease in accumulation of cells in S phase at 5 uM measured after 6 hrs by PI staining based flow cytometry (reference value: 9.8%); assay type: functional; parameters: scale not given: the % may be the effect or the level left
Leishmania donovani [18] = assay: Antileishmanial activity against Leishmania donovani Ag83 promastigotes assessed as cell viability by MTT assay; assay type: functional, organism-based
[19] = Cytotoxicity against BALB/c mouse macrophage assessed as cell viability measured after 48 hrs infection by propidium iodide staining analysis relative to control; assay type: toxicity, cell-based; details: mouse macrophages
[20] = Toxicity in BALB/c mouse infected with Antimony resistant Leishmania donovani BHU575 promastigotes assessed as change in body weight treated after 3 weeks of infection at 5 to 10 mg/kg, ip twice a week for 3 weeks; assay type: organism-based; details: in vivo, dose 5-10 mg/kg
Leishmania donovani [21] = assay: Antileishmanial activity against Leishmania donovani Ag83 promastigotes infected in BALB/c mouse assessed as reduction of amastigote burden by measuring parasite count in blood treated after 3 weeks of infection at 5 to 10 mg/kg, ip twice a week for 3 weeks by qPCR based kineto-plastid DNA; assay type: functional, organism-based; details: dose 5-10 mg/kg
Leishmania donovani [22] = assay: Antileishmanial activity against Leishmania donovani Ag83 promastigotes infected in BALB/c mouse assessed as reduction of amastigote burden by measuring parasite count in liver treated after 3 weeks of infection at 5 to 10 mg/kg, ip twice a week for 3 weeks by qPCR based kineto-plastid DNA; assay type: functional, organism-based; details: dose 5-10 mg/kg
Leishmania donovani [23] = assay: (§2) Antileishmanial activity against Leishmania donovani Ag83 promastigotes infected in BALB/c mouse model of visceral leishmaniasis assessed as fold change in T-helper type 1 immunological evoke response in splenocytes by measuring increased IFN-gamma cytokine level treated after 3 weeks of infection at 10 mg/kg, ip twice a week for 3 weeks by RT-PCR analysis; assay type: functional
Leishmania donovani [24] = assay: as §2, with “by measuring decrease in IL-10 level treated” for “by measuring increased IFN-gamma cytokine level treated”, “infection at 5 to 10 mg/kg,” for “infection at 10 mg/kg,”; assay type: functional; details: dose 5-10 mg/kg
Leishmania donovani [25] = assay: Antileishmanial activity against Leishmania donovani Ag83 promastigotes infected in BALB/c mouse model of visceral leishmaniasis assessed as T-helper type 2 immunological evoke response in splenocytes by measuring decrease in IL-4 level treated after 3 weeks of infection at 5 to 10 mg/kg, ip twice a week for 3 weeks by RT-PCR analysis; assay type: functional, organism-based; details: dose 5-10 mg/kg

COc1cc(-c2nc3ccccc3c3nc4ccccn4c23)cc(OC)c1OC
Activity (Leishmania donovani [1]): 27.7%
Activity [2]: inactive
Activity (Leishmania donovani [3]): 55.3%
Activity (MCF7 [4]): inactive
Activity (Leishmania donovani [5]): 18.7%
Activity (Leishmania donovani [6]): 2%
Activity (Leishmania donovani [7]): 4.9%
Activity (Leishmania donovani [8]): Active
Activity (MCF7 [9]): inactive
Ratio IC50 (MCF7 [10]): 90
Activity (Leishmania donovani [11]): Tde
Activity (Leishmania donovani [12]): Active
inhibition [13]: Dose-Dependent Effect
IC50 (DNA topoisomerase I): 8.75 µM
fold change (FC) [14]: 5
Activity (Leishmania donovani [15]): Active
Activity (Leishmania donovani [16]): 85%
Activity (Leishmania donovani [17]): 24.5%
EC50 (Leishmania donovani [18]): 2.31 µM
EC50 at 48 h [19]: 50.2 µM
Activity [20]: Non-Toxic
Activity (Leishmania donovani [21]): Active
Activity (Leishmania donovani [22]): Active
fold change (FC) (Leishmania donovani [23]): 5.5
fold change (FC) (Leishmania donovani [24]): 2
Activity (Leishmania donovani [25]): Active
